Measured values as given in patent US20220054644A1, “NOVEL DRUG DELIVERY CONJUGATED MOIETY FOR ORAL ADMINISTRATION OF DRUG UNSUITABLE FOR ORAL ADMINISTRATION AND PREPARATION METHOD THEREOF” (ST PHARM CO., LTD, priority 2015, published 2022).

Assays:
[1] = system: deep vein thrombosis (DVT) disease models; assay: Measurement of DVT activities (rat deep vein thrombosis model); format: in vivo; conditions: rats, LMWH (enoxaparin) injected subcutaneously
Protocol: Low molecular weight heparin (enoxaparin) was administered to one group by subcutaneous injection, and the formulated complex of Example 2 was administered orally to other groups. […] The distal end of the vein along about 3 cm was weakly tied off, and the remaining veins were strongly tied off. 60 minutes after the drug treatment, 1 mL/kg of human pooled plasma was administered intravenously to the ends of the tails at 37° C., and the veins were tied off after 15 seconds to prevent blood flow. The veins were isolated 120 minutes after the drug treatment and stored in a Petri dish with 3.8% sodium citrate. Then, thrombus was isolated, and the amount of […] generated was measured.

[2] = rat, in vivo, iv, 2 mg/kg
Protocol: The following experiment was performed to determine the pharmacokinetic (PK) behavior of heparin administered orally using the drug delivery conjugated moiety of the present invention.
Prior to drug administration, experimental animals (rats) were fasted for more than 4 hours to empty the stomach. Then, after the dorsal skin was fixed, forced oral administration was performed using a sonde and a syringe for oral administration, and the animals were fed again about 4 hours after the administration. […] Blood samples (450 μL) were collected in a tube containing sodium citrate (50 μL) and centrifuged at 4500×g for 20 minutes to isolate plasma, which was then stored in a deep freezer at −70° C. The concentration of the drug delivery conjugated moiety-heparin complex in the plasma was analyzed using the COATEST HEPARIN FXa assay (Chromogenix).

FXa (Bovine Factor Xa) = assay: Measurement of FXa: heparin activity with COATEST HEPARIN FXa assay kit; format: biochemical; conditions: chromogenic substrate S-2222, absorbance at 405 nm
Protocol: The term “heparin activity” refers to the anticoagulant ability of heparin.
Stock solutions were prepared from 10 IU/ml of standard solution by accurately preparing test substances and then diluted to 0.1 IU/ml with buffer working solution (Tris 0.5 mol/L, pH=8.4, 10 ml, Chromogenix) to prepare standard solutions for each dose as shown in the following table 2 and used for the analysis.
Each 200 μL of pretreated samples was placed in a cuvette and preheated at 37° C. for 3 to 4 minutes. Each 100 μl of FXa (Bovine Factor Xa 71 nkat., Chromogenix) was added thereto and left at 37° C. for about 30 seconds. Then, each 200 μl of S-2222 (Chromogenic substrate (Bz-Ile-Glu-(g-OR)-Gly-Arg-pNA.HCl), Chromogenix) was added thereto and left at 37° C. for 3 minutes. Subsequently, each 300 μl of 20% acetic acid was added thereto, and then the absorbance was measured at 405 nm. At this time, the measurement should be performed within 4 hours.
A linear regression equation was obtained using calibration curve of the standard solutions and converted to obtain the titers of the samples.

enoxaparin [LMWH]
thrombus generated, compared with complex of Example 2 [1]: almost the same results
AUC (Area under the concentration-time curve from 0 to 8 h) [2]: 1.8 ± 0.1 IU · h/ml
CL (Clearance) [2]: 0.7 ± 0.0 mL/h/kg
Emax (Maximum effective concentration) [2]: 1.61 ± 0.02 IU/ml
Tmax (Time to reach maximum effective concentration) [2]: 12 ± 0 min
t1/2 (Half-life of drug) [2]: 1.2 ± 0.1 h
Anti-factor Xa activity (FXa (Bovine Factor Xa)): 101 IU/mg
